In patent publication US5643890A, “Synthetic oligonucleotides which mimic telomeric sequences for use in treatment of cancer and other diseases” (priority 1995, dated 1997):
Read-outs that look alike come from different tables or passages of the source.

What was measured:
OMA-BL1 cells = test: Growth rate / doubling time of OMA-BL1 cells cultured with oligo; type: cell-based, human; conditions: for Doubling Time (Hours of Doubling): observed for 5 days
Experimental: A cell line, OMA-BL1, of cells derived from an American Burkitt's lymphoma patient, which had the typical 8:14 chromosome translocation characteristic of Burkitt's lymphoma was tested according to the method of the invention. The OMA-BL1 cells have a homologous staining region along chromosome 18 (18 HSR). The cell line was grown in vitro consisting of RPMI 1640 medium supplemented with 20% fetal calf serum (RF20). 2 mM L-glutamine and antibiotics (streptomycin 100 μ/ml and penicillin) 2× week.
Phosphorothioate oligonucleotides corresponding to the recognition sequence for telomerase enzyme were synthesized. The sequence of oligonucleotides tested was 5'-(TTAGGG)-3' SEQ ID NO: 3. They were dissolved in RPMI1640 medium before using.
The cell lines were grown under concentration of 5×10^5 cells/ml and RPMI1640 with and without different concentrations of oligo. Concentrations of oligo used in the study were 1.25 μM and 2.5 μM. The growth rate of the cells was measured by counting the cells with a light microscope and Neuber cell counter on days 1, 3, and 5 after initiation of the culture. […]

[1] = system: OMA-BL1, Burkitt's Lymphoma; test: In vivo efficacy, OMA-BL1 Burkitt's lymphoma in nude mice, continuous subcutaneous infusion
Experimental: Nude mice were injected with 5×10^6 OMA-BL1 cells subcutaneously in the leg flank. The mice were observed daily for the appearance of tumors and general well-being. […] The mean fill volume of these pumps is 0.226 ml. A solution of 4 mg/ml of 6-mers and 20 μl of FITC-TAG-6 was prepared then sterile filtered through a 0.22 μm in line filter (Millipore). […]

[2] = system: OMA-BL1 cells, PBE1 cells, HPB-null cell line; test: Cellular uptake of FITC-labeled oligo; type: cell-based; conditions: 6-mer compared with 18-mer; cell lines which have differentiated
Description: Several studies were done on cellular uptake and thus efficiency of oligonucleotide sequences mimicking the telomere motif. FIGS. 4 and 5 depict the comparison of the 18-mer 5'-d(TTAGGG)3 -3' SEQ ID NO: 4 with the 6-mer TELIGO 5'-d(TTAGGG)-3' SEQ ID NO: 3 for cellular uptake of FITC-labeled oligo in OMA-BL1 cells (FIGS. 5 and 4(a)), PBE1 cells FIG. 4(b) and in the nondifferentiated HPB-null cell line FIG. 4(c). […] FIG. 6 depicts the effects of 5'-d(TTAGGG)-3' SEQ ID NO: 3 on growth of OMA-BL1 cells in vitro at 1.25 μM and 2.5 μM.

Telomerase enzyme = test: Telomerase activity in extract of Chang cells incubated with oligo (32P-dGTP primer elongation, gel autoradiograph); type: cell-based, human; conditions: 3 μM oligo, three hours
Experimental: Chang cells (human liver carcinoma) were grown in three T150 flasks until they reached confluency. 5'-d(TTAGGG)-3' SEQ ID NO: 3 phosphorothioate oligonucleotide was added at 3 μM concentration to each of the flasks and was allowed to incubate for three hours. Cells were harvested by scraping with a rubber policeman. Telomerase enzyme was prepared according to the method of Dignam, J. D.; Lebovitz, R. M.; and Raeder, R. G. (1983). Accurate transcription initiation by RNA Polymerase II in a Soluble Extract From Isolated Mammalian Nuclei. Nucl. Acids Res. 11, 1475-1489. 20 μL samples were taken from -80° C. and 20 μL of a reaction mixture containing 4.0mM dATP, 4.0mM dTTP, 4.0 mM dGTP, 2.0 μM (5'-d(TTAGGG)3 -3') SEQ ID NO: 4 primer, 10 mM β-mercaptanol, 100 mM TRIS-acetate pH 8.5, 2.0 mM MgCl2, 1 mM spermidine, and 2 μL of 3000 Ci/mmol P^32 labeled dGTP.
Samples were incubated for 30 minutes at 30° C. and stopped by the addition 10 μL […] EDTA pH 8.0 and 2.0 μL of tracking dye. Samples were loaded onto a 12.5 percent acrylamide gel and run at 25 mA constant power for 4-5 hours until the tracking dye had run off the gel. The gel was then soaked in 10 percent glycerol and water and dried overnight between two sheets of cellophane. […] The telomerase activity was inhibited for the 6-mer oligo.

410.4 cells = test: Tumor invasion assay (Matrigel invasion chambers) and proliferation, mouse breast cancer cell line; type: cell-based; conditions: for % control invasion / % inhibition: Mouse cell line, 48 hours; for % inhibition: invasion; for proliferation (in words): mouse highly metastatic breast cancer cell line
Experimental: Migration of 410.4 cells through matrigel coated Nucleopore filters was measured using Matrigel invasion chambers (Collaborative Biomedical Products). These chambers contained inserts with […] pore size and were coated with a uniform film of matrigel. 4×10^4 410.4 cells in Weymouths Medium plus 0.1% bovine serum albumin were added to the invasion chambers. The wells below the invasion chambers contained 0.5 ml of Weymouths plus 10% fetal calf serum as a chemoattractant. […] The noninvasive cells were then removed from the upper surface of the membrane with a cotton swab and the cells on the lower surface were stained using a Leucostat staining kit. The membranes then were removed from the chamber using a scalpel and the cells were counted under high power (450×) in 5 random fields.

[3] = system: highly metastatic breast cancer cell line (Human); test: Tumor invasion assay (Matrigel invasion chambers) and proliferation, human breast cancer cell line; type: cell-based; conditions: for % control invasion / % inhibition: Human cell line, 48 hours; for proliferation (in words): human highly metastatic breast cancer cell line; for % inhibition: invasion
telomerase [4] = test: FAM labeled 6-mer recovered from urine of tumor-bearing nude mouse, size analysis of telomerase products; type: in vivo; conditions: nude mouse bearing OMA-BL1 tumor
Experimental: An FAM labeled 6-mer 5'-d(TTAGGG)-3' SEQ ID NO: 3 was injected into nude mice with Burkitt's lymphoma (OMA-BL1) cells growing in them. The FAM labeled TELIGO was recovered from the urine of a nude mouse bearing a tumor composed of OMA-BL1 cells. The urine was evaluated on an Applied Biosystem, Inc. Gene Scanner which can separate the products of the telomerase enzyme by size along the abscissa and reports the quantity of products by the fluorescence intensity along the ordinate in arbitrary units. An internal standard of rhodamine labeled nucleic acids is run in the same gel in order to establish the measurement of size of the telomerase enzyme products of the TELIGO. The FAM label verifies that the DNA is from the injected TELIGO 6-mer and the size additions of intervals of 6-base lengths is evidence of the telomerase enzyme activity which adds 6 bases per catalytic cycle.
All products were multiples of six which is significant because in that telomerase adds bases to telomeres in multiples of six. Thus it would seem the 6-mer interacts with telomerase to form unique products verifying interaction in vivo.

cell line = conditions: cited from earlier work
telomerase [5] = test: HPB-null cell lysate, incorporation of labeled nucleic acids onto TELIGO 18-mer; type: cell-based; conditions: HPB-null cells
telomerase [6] = test: Telomerase activity in OMA-BL1 cell lysate (densitometry of autoradiograph); type: biochemical, human; conditions: test not specified at b115
Experimental: An OMA-BL1 cell lysate was prepared to retain telomerase activity. The telomerase enzyme adds radioactive nucleic acids to the substrate which are separated on a polyacrylamide gel. The relative radioactivity in the gel was measured by densitomitry of the autoradiograph.

[7] = nude mice, 48 μg/day, 14 days, subcutaneous infusion

Row | Substance | Doubling Time (Hours of Doubling) (OMA-BL1 cells; 1.25 μM oligo) | Doubling Time (Hours of Doubling) (OMA-BL1 cells; 2.5 μM oligo) | effect on cell proliferation (in words) (OMA-BL1 cells) | other results
1 | 5'-d(GTTGAGGGG)-3' (DNA, backbone not given here) | 49.4 ± 4.02 h | 60.71 ± 4.25 h | – | –
2 | 5'-d(TAGGG)-3' (DNA, backbone not given here) | 48.5 ± 3.0 h | 41.6 ± 2.0 h | no inhibitory effect | –
3 | 5'-d(TCCTAGGTCCATGTCGTACGC)-3' (DNA, backbone not given here) [reference compound] | – | 38 h | – | –
4 | 5'-d(TGAGG)-3' (DNA, backbone not given here) | 30.3 ± 39 h | 42.0 ± 6.8 h | – | –
5 | 5'-d(TGTGAG)-3' [reference compound] | 42.4 ± 1.8 h | 40.9 ± 2.3 h | – | tumor regression [1, 7]: no such action was observed
6 | 5'-d(TTAGG)-3' (DNA, backbone not given here) | 31.2 ± 8.5 h | 36.7 ± 3.1 h | no inhibitory effect | –
7 | 5'-d(TTAGGG)-3' (phosphorothioate backbone) [6-mer oligonucleotide which mimics the telomere motif] | 59.4 ± 7.5 h | > 100 h | drastically decreasing cell proliferation | toxicity during the treatment [1, 7]: No toxicity was observed; tumor regression [1, 7]: regression of tumors; localization of the oligonucleotide ([1]; tumor bearing nude mice, continuous subcutaneous infusion): localization of the oligonucleotide in tumors; cellular uptake of FITC-labeled oligo [2]: considerably higher cellular uptake; telomerase activity (elongation on autoradiograph) (Telomerase enzyme): inhibited; % control invasion (410.4 cells): 15%; % inhibition (410.4 cells): 75%; proliferation (in words) (410.4 cells): inhibition of proliferation; effect on cell proliferation (in words) (OMA-BL1 cells; listed as phosphorothioate 6-mer): significant decrease in cell proliferation; % control invasion [3]: 30%; proliferation (in words) [3]: inhibition of proliferation; % inhibition [3]: 70%; substrate for telomerase in vivo (FAM-labeled products in urine, multiples of six) (telomerase [4]): substrate for telomerase in vivo
8 | 5'-d(TTAGGGTTAGGG):' (DNA, backbone not given here) [two telomere repeats] | > 100 h | > 100 h | – | days in culture before any observable response (cell line): ≤ 6 days
9 | 5'-d(TTAGGGTTAGGGTTAGGG)-3' (DNA, backbone not given here) | > 100 h | > 100 h | – | % control invasion (410.4 cells): 21%; % inhibition (410.4 cells): 79%; proliferation (in words) (410.4 cells): inhibition of proliferation; % control invasion [3]: 8%; proliferation (in words) [3]: inhibition of proliferation; % inhibition [3]: 92%; extension on the TELIGO 18-mer (retained radioactivity) (telomerase [5]): dependent upon the dose
10 | 5'-d(TTAGGGTTAGGGTTAGGGTTAGGG)-3' | > 100 h | > 100 h | – | –
11 | 5'AACGGTGAGGGGCAT-3' (chemistry not given here) [c-myc, antisense oligo to the c-myc gene, reference compound] | – | – | significantly decreased cellular proliferation | –
12 | 5'TATGCTGTGCCGGGGTCTTCGGGC-3' (chemistry not given here) [c-myb antisense oligonucleotide, reference compound] | – | – | significantly decreased cellular proliferation | –
13 | TGTGAGGGG (chemistry not given here) [myc 9-mer, 9-mer derived from the antisense oligo c-myc, contains a motif substantially analogous to the telomere motif] | – | – | effects similar to the 6-met | telomerase activity (in words) (telomerase [6]): inhibited
